Patent US11899025B2, “Pharmaceutical composition for preventing or treating neurodegenerative diseases comprising COX2 acetylating agent as active ingredient” (KYUNGPOOK NATIONAL UNIVERSITY INDUSTRY-ACADEMIC COOPERATION …, priority 2018, dated 2024)
Blank lines part the entries; values can stand above or below the molecule they belong to.

What was measured:
[1] = system: APP/PS1 mice; test: Alzheimer's animal model (APP/PS1 mice): immunofluorescence, Thioflavin S, Morris Water Maze; type: in vivo, mouse; settings: 7-month-old APP/PS1 mice, 5 mg/kg N-acetyl sphingosine, 1 mg/kg FTY720 or 3 uM S1P daily for 4 weeks, intraperitoneal; for microglia (Iba1) in brain cortex vs APP/PS1 mice: FIG. 9a; for astrocytes (GFAP) in brain cortex vs APP/PS1 mice: FIG. 9b; for amount of Aβ / Aβ deposition (Thioflavin S) vs APP/PS1 mice: FIG. 9c; for memory and cognition (Morris Water Maze) vs APP/PS1 mice: FIG. 9d
Excerpt: It has been approved for mouse experiments by the Kyungpook National University Institutional Animal Care and Use Committee (IACUC). A transgenic mouse line overexpressing APPswe (hAPP695swe) or PS1 (presenilin-1M146V) based on C57BL/6 mice (Charles River, UK) was used. [Hereinafter, APP mouse: mouse overexpressing APPswe, PS1 mouse: mouse overexpressing presenilin-1M146V; GlaxoSmithKline]. As an Alzheimer's (AD) animal model, SphK1 tg (SphK1 gene overexpressing mouse) was crossed with APP mice and APP/PS1 mice to prepare APP/PS1/SphK1 tg mice. Niemanpick (NP-C) animal model, Balb/C (Orient, Wild type), NPC mutant mouse lacking NPC1 gene (Provided by Riken, Japan, NP-C mice; less weight than normal mice of the same age, and severe motor function loss from 4 to 6 weeks of age, limb tremors and seizures appear, and lifespan is approximately 9 to 10 weeks. Is) was used. As an animal model for amyotrophic lateral sclerosis (ALS), a transgenic mouse (FUS) line overexpressing RUS R521C based on C57BL/6 mice (Charles River, UK) was used.
After fixing the cerebral and hippocampus of the mouse, anti-20G10 (mouse, 1:1000) against amyloid-β (Aβ) 42 and anti-G30 (rabbit, 1:1000) against Aβ 40, anti-MAP2 (chicken, 1:2000), anti-Synaptophysin (mouse, 1:100), anti-Synapsin1 (rabbit, 1:500), anti-PSD95 (mouse, 1:100), anti-Iba-1 (rabbit, 1:500), Anti-GFAP (rabbit, 1:500) was cultured together. The site was analyzed using a laser scanning confocal microscope or Olympus BX51 microscope equipped with Fluoview SV1000 imaging software (Olympus FV1000, Japan). Metamorph software (Molecular Devices) was used to quantify the percentage of the area of the stained area relative to the area of the total tissue.
In order to confirm the potential effect on learning and memory, MWM (Morris water maze) and fear conditioning experiments were performed. MWM learned the task 4 times a day for 10 days for the mice, the platform was removed on the 11th day, and a probe trial was performed. On the first day of Fear conditioning, the mice were placed in a conditioning chamber, and sound stimulation (10 kHz, 70 dB) and electrical stimulation (0.3 mA, 1 s) were given. On the second day, memory for the space was checked without stimulation in the same conditioning chamber as on the first day, and on the third day, a memory test for fear was performed when only sound stimulation was given in another conditioning chamber. An open field test was performed to evaluate motor ability and immediate activity. In the open field test, the mice were placed in a square box for 10 minutes to measure the overall exercise power, time, and distance.
(§1) In order to measure the neuroinflammatory resolution factor, after culturing neurons from mouse cerebrum, CM was prepared by treatment with 10 nM N-acetyl sphingosine 1 phosphate (Toronto Research chemicals, C262710) and N-acetyl sphingosine (Sigma, 01912). For COX2 acetylation analysis, neurons were cultured from mouse cerebrum and then treated with 2 uCi [^14C]N-acetyl sphingosine (ARC, ARC1024). In addition, for in vivo experiments, 7-month-old APP/PS1 mice were injected with 5 mg/kg N-acetyl sphingosine (Sigma, 01912), 1 mg/kg FTY720 and 3 uM S1P daily for 4 weeks via intraperitoneal injection. 1 month-old NPC mice were injected with 5 mg/kg N-acetyl sphingosine (Sigma, 01912) and 2-month-old FUS mice with 30 mg/kg N-acetyl sphingosine (Sigma, 01912) daily for 4 weeks via subcutaneous injection.
The present inventors confirmed AD lesions by injecting N-acetyl sphingosine, one of the COX2 acetylating agents identified through the above experiment, into an APP/PS1 animal model. First, in order to determine the effect of N-acetyl sphingosine on the neuroinflammatory response by secreting neuroinflammatory resolution factor, changes in microglia and astrocytes were observed. […]

[2] = target: SphK1 (Homo sapiens, UniProt Q9NYA1); test: dissociation of acetyl-CoA from the acetyl-CoA:SphK1 complex, equilibrium dialysis; type: binding
[3] = system: APP/PS1 neurons; test: neuroinflammatory resolution factor (SPMs) secretion in APP/PS1 neurons after COX2 acetylating agent treatment; type: cell-based, mouse; settings: 10 nM; FIG. 8b
Procedure: A commercially available ELISA kit (Biosource) was used, and the hemispheres of mice were homogenized and placed in a buffer containing 0.02M guanidine to prepare a sample for Aβ ELISA. In order to measure the neuroinflammatory resolution factor, conditioned media (CM) was prepared after culturing neurons from mouse cerebrum. Thereafter, according to the manufacturer's manual, ELISA for Aβ and SPM was performed.
as §1
First, in order to confirm whether the selected compounds promote the secretion of neuroinflammatory resolution factor in neurons, after treatment with N-acetyl sphingosine 1 phosphate or N-acetyl sphingosine in APP/PS1 neurons, the expression levels of neuroinflammatory resolution factor were confirmed. As a result, it was confirmed that the expression levels of LxA4 and RvE1 in neurons of APP/PS1 mice were recovered when treated with N-acetyl sphingosine 1 phosphate or N-acetyl sphingosine (FIG. 8b).

[4] = substrate: CC(=O)SCCNC(=O)CCNC(=O)[C@H](O)C(C)(C)COP(=O)(O)OP(=O)(O)OC[C@H]1O[C@@H](n2cnc3c(N)ncnc32)[C@H](O)[C@@H]1OP(=O)(O)O; test: purified protein, by the assay type; settings: other: in the presence of 10 mM sphingosine; [3H]acetyl-CoA; FIG. 1a

Molecule: CCCCCCCCc1ccc(CCC(N)(CO)CO)cc1 [FTY720]
microglia (Iba1) in brain cortex vs APP/PS1 mice [1]: no difference
astrocytes (GFAP) in brain cortex vs APP/PS1 mice [1]: no difference
amount of Aβ / Aβ deposition (Thioflavin S) vs APP/PS1 mice [1]: no effect
memory and cognition (Morris Water Maze) vs APP/PS1 mice [1]: no effect

Kd [2]: 6.8 µM
Molecule: CC(=O)SCCNC(=O)CCNC(=O)[C@H](O)C(C)(C)COP(=O)(O)OP(=O)(O)OC[C@H]1O[C@@H](n2cnc3c(N)ncnc32)[C@H](O)[C@@H]1OP(=O)(O)O [acetyl-CoA]

Molecule: CCCCCCCCCCCCC/C=C/[C@@H](O)[C@@H](N)COP(=O)(O)O [S1P, sphingosine-1-phosphate]
microglia (Iba1) in brain cortex vs APP/PS1 mice [1]: no difference
astrocytes (GFAP) in brain cortex vs APP/PS1 mice [1]: no difference
amount of Aβ / Aβ deposition (Thioflavin S) vs APP/PS1 mice [1]: no effect
memory and cognition (Morris Water Maze) vs APP/PS1 mice [1]: no effect

Molecule: CCCCCCCCCCCCC/C=C/[C@@H](O)[C@H](COP(=O)(O)O)NC(C)=O [N-acetyl sphingosine 1 phosphate]
expression level of LxA4 in neurons of APP/PS1 mice [3]: recovered
expression level of RvE1 in neurons of APP/PS1 mice [3]: recovered

B1: SphK1 (Homo sapiens) (protein)
chain: MDPAGGPRGVLPRPCRVLVLLNPRGGKGKALQLFRSHVQPLLAEAEISFTLMLTERRNHARELVRSEELGRWDALVVMSGDGLMHEVVNGLMERPDWETAIQKPLCSLPAGSGNALAASLNHYAGYEQVTNEDLLTNCTLLLCRRLLSPMNLLSLHTASGLRLFSVLSLAWGFIADVDLESEKYRRLGEMRFTLGTFLRLAALRTYRGRLAYLPVGRVGSKTPASPVVVQQGPVDAHLVPLEEPVPSHWTVVPDEDFVLVLALLHSHLGSEMFAAPMGRCAAGVMHLFYVRAGVSRAMLLRLFLAMEKGRHMEYECPYLVYVPVVAFRLEPKDGKGVFAVDGELMVSEAVQGQVHPNYFWMVSGCVEPPPSWKPQQMPPPEEPL
Km [4]: 58.2 µM
kcat [4]: 0.0185 min⁻¹
